Experimental findings from ChEMBL document CHEMBL1153531, “1- or 3-(3-Amino-2-hydroxy-1-phenyl propyl)-1,3-dihydro-2H-benzimidazol-2-ones: potent, selective, and orally efficacious norepinephrine reuptake inhibitors” (J Med Chem, 2009) are described below.

For data set [1], the target named is Sodium-dependent serotonin transporter (Homo sapiens) (UniProt P31645). The data set is described as follows: Inhibition of [3H]hydroxytryptamine creatinine sulfate uptake at human SERT expressed in human JAR cells at 1 uM. It is filed as cell-based.
Chain of Sodium-dependent serotonin transporter (Homo sapiens) (P31645 whole entry, looked up): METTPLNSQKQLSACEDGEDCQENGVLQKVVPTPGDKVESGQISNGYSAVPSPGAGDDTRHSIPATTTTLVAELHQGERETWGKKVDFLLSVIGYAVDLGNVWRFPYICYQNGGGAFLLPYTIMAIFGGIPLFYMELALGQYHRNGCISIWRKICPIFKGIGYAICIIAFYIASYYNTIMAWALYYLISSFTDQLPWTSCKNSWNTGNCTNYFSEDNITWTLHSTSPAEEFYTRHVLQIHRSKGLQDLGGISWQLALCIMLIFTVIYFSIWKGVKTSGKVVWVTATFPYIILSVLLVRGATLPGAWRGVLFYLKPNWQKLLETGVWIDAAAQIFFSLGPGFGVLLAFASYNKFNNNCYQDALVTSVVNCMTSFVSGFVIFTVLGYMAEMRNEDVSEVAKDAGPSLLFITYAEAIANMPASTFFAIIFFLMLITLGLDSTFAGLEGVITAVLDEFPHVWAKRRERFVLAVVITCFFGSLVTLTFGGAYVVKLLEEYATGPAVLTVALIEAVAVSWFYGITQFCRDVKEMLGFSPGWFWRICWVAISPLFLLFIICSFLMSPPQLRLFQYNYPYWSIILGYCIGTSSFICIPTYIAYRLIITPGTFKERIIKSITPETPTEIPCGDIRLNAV
For data set [2], the target named is Sodium-dependent dopamine transporter (Homo sapiens) (UniProt Q01959). The data set is described as follows: Inhibition of [3H]WIN-35428 binding to human recombinant DAT expressed in CHO cells at 1 uM by scintillation counting. The class given is cell-based.
Chain of Sodium-dependent dopamine transporter (Homo sapiens) (Q01959 whole entry): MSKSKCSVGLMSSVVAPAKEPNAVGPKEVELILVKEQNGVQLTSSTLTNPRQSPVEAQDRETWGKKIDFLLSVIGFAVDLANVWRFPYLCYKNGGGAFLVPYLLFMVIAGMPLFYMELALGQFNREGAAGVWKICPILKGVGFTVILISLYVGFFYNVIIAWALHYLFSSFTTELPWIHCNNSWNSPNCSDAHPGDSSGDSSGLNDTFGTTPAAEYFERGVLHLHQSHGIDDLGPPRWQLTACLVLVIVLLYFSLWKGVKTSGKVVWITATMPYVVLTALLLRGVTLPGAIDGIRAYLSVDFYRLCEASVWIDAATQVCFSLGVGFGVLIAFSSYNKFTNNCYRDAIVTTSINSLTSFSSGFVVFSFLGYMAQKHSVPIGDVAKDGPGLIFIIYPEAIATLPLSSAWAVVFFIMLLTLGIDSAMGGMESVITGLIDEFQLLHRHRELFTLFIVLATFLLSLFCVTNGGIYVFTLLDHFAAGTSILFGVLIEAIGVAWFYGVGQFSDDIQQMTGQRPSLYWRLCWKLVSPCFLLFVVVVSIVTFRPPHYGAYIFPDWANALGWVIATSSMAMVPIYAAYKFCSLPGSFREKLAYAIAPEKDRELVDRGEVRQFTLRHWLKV
Data set [3] concerns the target T1, Sodium-dependent noradrenaline transporter (Homo sapiens, UniProt P23975).
Data set [4] addresses T1, Sodium-dependent noradrenaline transporter. The data set is described as follows: biochemical.
Data set [5] has as its target Sodium-dependent dopamine transporter (Homo sapiens) (UniProt Q01959). The data set is described as follows: Inhibition of [3H]WIN-35428 binding to human recombinant DAT expressed in CHO cells at 10 uM by scintillation counting. The class given is cell-based.
Data set [6] concerns Rattus norvegicus. The data set is described as follows: Effect on temperature homeostasis in telemetric ovariectomy-induced thermoregulatory dysfunction Sprague-Dawley rat model assessed as duration of tail skin temperature reduction at 3 mg/kg, po. The class given is functional.
A short description of data set [7]: Cmax in Sprague-Dawley rat 10 mg/kg, po within 2 hrs. Conditions: in vivo. The class given is ADME, organism-based. Also on record: dose 10 mg/kg, route oral.
Data set [8] can be described thus: Terminal half life in Sprague-Dawley rat at 10 mg/kg, po. The settings on record: in vivo, read-out: beta t1/2 (converted). The class given is ADME, organism-based. Details: dose 10 mg/kg, route oral.
Data set [9] in a line: AUC (0 to infinity) in Sprague-Dawley rat at 5 mg/kg, iv. It is filed as ADME, organism-based. Details: time infinity, dose 5 mg/kg, route intravenous. Conditions: plasma.
The nature of data set [10]: Tmax in Sprague-Dawley rat at 10 mg/kg, po. It is filed as ADME, organism-based. Also on record: dose 10 mg/kg, route oral. Conditions: in vivo.
Data set [11] in a line: Oral bioavailability in Sprague-Dawley rat at 10 mg/kg. The class given is ADME, organism-based. Conditions: in vivo.
In data set [12] the test system is Rattus norvegicus. The data set is described as follows: Effect on temperature homeostasis in telemetric ovariectomy-induced thermoregulatory dysfunction Sprague-Dawley rat model assessed as maximum reduction in tail skin temperature at 3 mg/kg, po relative to baseline. It is filed as functional.
Data set [13] in a line: Plasma clearance in Sprague-Dawley rat at 5 mg/kg, iv. Also on record: dose 5 mg/kg, route intravenous. The class given is ADME, organism-based.
The test system of data set [14] is Rattus norvegicus. The data set is described as follows: Effect on temperature homeostasis in telemetric ovariectomy-induced thermoregulatory dysfunction Sprague-Dawley rat model assessed as mean reduction in tail skin temperature at 3 mg/kg, po relative to baseline. The class given is functional.
Data set [15] is described as follows: Terminal half life in Sprague-Dawley rat at 5 mg/kg, iv. It is filed as ADME, organism-based. Details: dose 5 mg/kg, route intravenous. The settings on record: in vivo, read-out: beta t1/2 (converted).
Data set [16] in a line: AUC (0 to infinity) in Sprague-Dawley rat at 10 mg/kg, po. The settings on record: plasma. Also on record: time infinity, dose 10 mg/kg, route oral. The class given is ADME, organism-based.
Data set [17] has as its system Rattus norvegicus. The data set is described as follows: Analgesic activity in Sprague-Dawley rat acute analgesia model assessed as increase nocifensive latency at 10 mg/kg, po after 1 hr by hot plate assay. It is filed as functional, organism-based. Details: dose 10 mg/kg.
Data set [18] concerns Rattus norvegicus. The data set is described as follows: Analgesic activity in Sprague-Dawley rat acute analgesia model assessed as increase in nocifensive latency at 10 mg/kg, po after 3 hrs by hot plate assay. The class given is functional, organism-based. Details: dose 10 mg/kg.
The test system of the next data set is JAR. The data set is described as follows: Selectivity for human NET expressed in MDCK-Net6 cells over human SERT expressed in human JAR cells. It is filed as cell-based.
Data set [19] deals with Sodium-dependent serotonin transporter (Homo sapiens) (UniProt P31645). Conditions: JAR.
Data set [20] concerns Rattus norvegicus. The data set is described as follows: Antihyperalgesic in po dosed Sprague-Dawley rat spinal nerve ligation model of neuropathic pain assessed as complete hind paw withdrawal after 3 to 4 weeks post surgery by paw pressure technique analysis. It is filed as functional, organism-based.
Data set [21] relates to Rattus norvegicus. The data set is described as follows: Analgesic activity in Sprague-Dawley rat acute analgesia model assessed as increase in nocifensive latency at 10 mg/kg, po after 5 hrs by hot plate assay. It is filed as functional, organism-based. Also on record: dose 10 mg/kg. For orientation: Thermal pain tests record how soon the animal reacts.
The species entered for the next data set is Homo sapiens. The data set is described as follows: Selectivity […] human SERT to IC50 for human NET.
The subject of the next data set is CHO. The data set is described as follows: Selectivity for human NET expressed in MDCK-Net6 cells over human DAT expressed in CHO cells. It is filed as cell-based.
Data set [22] concerns the target Sodium-dependent dopamine transporter (Homo sapiens) (UniProt Q01959). The data set is described as follows: Inhibition of [3H]WIN-35428 binding to human recombinant DAT expressed in CHO cells by scintillation counting. It is filed as cell-based.

In general, inhibition refers to the relative decrease from the control value, in per cent. The term IC50 denotes the concentration at which inhibition is half-maximal. Lower therefore signals greater potency. As a reminder, the Cmax is the peak of the concentration-time curve. One may read the AUC(0-inf) as total exposure, with the tail of the curve extrapolated. Low values mean less exposure, high ones more exposure. As usually defined, the Tmax is the time from dosing to the highest level. By bioavailability is commonly meant dose-corrected exposure relative to a reference, in per cent. Read a high bioavailability as good availability. What is called clearance is a measure of how efficiently the substance is removed, as volume per time. A lower clearance goes with inefficient removal.

The source made the active and inactive calls. The rule behind the calls is not given here.

T1 sequence (P23975 whole entry): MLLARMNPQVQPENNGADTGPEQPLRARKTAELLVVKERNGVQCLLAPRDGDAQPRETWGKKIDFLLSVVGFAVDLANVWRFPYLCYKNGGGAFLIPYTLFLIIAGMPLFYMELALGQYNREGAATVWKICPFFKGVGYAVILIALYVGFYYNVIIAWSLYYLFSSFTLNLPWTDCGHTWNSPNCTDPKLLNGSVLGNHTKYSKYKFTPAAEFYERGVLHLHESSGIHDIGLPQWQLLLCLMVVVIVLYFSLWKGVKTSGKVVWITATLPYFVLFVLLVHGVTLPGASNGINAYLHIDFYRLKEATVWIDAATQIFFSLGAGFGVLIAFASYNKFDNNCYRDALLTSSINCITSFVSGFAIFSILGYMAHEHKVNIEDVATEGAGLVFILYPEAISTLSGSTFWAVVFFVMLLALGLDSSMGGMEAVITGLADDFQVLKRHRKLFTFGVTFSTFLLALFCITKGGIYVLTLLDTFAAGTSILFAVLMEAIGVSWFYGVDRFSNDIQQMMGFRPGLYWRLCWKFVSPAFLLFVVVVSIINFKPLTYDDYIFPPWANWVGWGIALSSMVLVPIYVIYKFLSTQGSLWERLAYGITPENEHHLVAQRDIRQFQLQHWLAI

Consider `CNC[C@@H](O)[C@H](c1ccccc1)n1c(=O)n(C(C)(C)C)c2ccccc21`, for which the results for the inhibition in data set [1] and in data set [2] were 1% and 3%, respectively. In data set [3], this molecule had a 50% inhibitory concentration (IC50) of 56 nM.
For the molecule `CNC[C@@H](O)[C@H](c1ccccc1)n1c(=O)n(C(C)C)c2ccccc21`, the inhibition in data set [1] and in data set [5] was 19% throughout. Moreover, the IC50 in data set [3] came out at 13.4 nM; in data set [4] it was 10.8 nM.
`CCn1c(=O)n([C@@H](c2ccccc2)[C@H](O)CNC)c2ccccc21`: in the data set with Rattus norvegicus [6], the Time is 3.5 h. This molecule also displayed a Cmax in data set [7] of 306 ng/mL. Besides, the inhibition in data set [1] was 4%. In addition, the half-life is 3.4 h in data set [8] and 3.6 h in data set [15]. For the same molecule, the IC50 in data set [3] was 17.5 nM; in data set [4] it was 16.8 nM. Also, the total exposure AUC(0-inf) in data set [9] was found to be 1640 ng·h/mL; in data set [16], 1840 ng·h/mL. Further, in data set [10], the Tmax was found to be 1.1 h. This molecule showed a bioavailability in data set [11] of 56%. In addition, the Activity with Rattus norvegicus [12] stood at 1.82 °C; with Rattus norvegicus [14], 1.57 °C. The molecule further displayed a clearance in [13] of 54 mL/min/kg.
For the molecule `CNC[C@@H](O)[C@H](c1ccccc1)n1c(=O)n(C)c2ccccc21`, the results for the inhibition in [1] and in data set [5] were 15% and 14%, respectively. In data set [3], this molecule registered an IC50 of 257 nM.
Consider `CCn1c(=O)n([C@@H](c2cccc(F)c2)[C@H](O)CNC)c2ccccc21`, for which the Time in the data set on Rattus norvegicus [6] worked out at 5 h. Moreover, the figures for the inhibition in data set [1] and in data set [5] were 15% and -2%, respectively. The result with Rattus norvegicus [17], in the data set on Rattus norvegicus [18] and with Rattus norvegicus [21] was Active. Further, the IC50 worked out at 7.4 nM in data set [3] and 6.4 nM in data set [4]. Moreover, the Selectivity ratio with JAR was greater than 500; in the data set filed under Homo sapiens, greater than 900; in the data set with CHO it was greater than 500. In addition, the Activity in the data set with Rattus norvegicus [12] is 2.62 °C; in the data set with Rattus norvegicus [20], “Dose-dependent effect”; in the data set on Rattus norvegicus [14], 2.03 °C. The molecule also showed an IC5 in [19] greater than 10 µM.
As to `CNC[C@@H](O)[C@H](c1cccc(F)c1)n1c(=O)n(-c2ccccc2)c2cccc(F)c21`, in data set [2], the inhibition was 11%. The half-maximal inhibitory concentration (IC50) in data set [3] was determined as 91.9 nM.
Consider `CCn1c(=O)n([C@@H](c2ccccc2)[C@H](O)CNC)c2cc(F)ccc21`, for which the inhibition in data set [1] came to 32%; in data set [5], 30%. Also, in [3], the IC50 was 36.7 nM.
For the molecule `CCn1c(=O)n([C@@H](c2ccccc2)[C@H](O)CNC)c2c(F)cccc21`, the inhibition in data set [1] is -5%; in data set [5], 29%. The IC50 in data set [3] was 13.8 nM; in [4] it was 11.4 nM.
In the case of `CNC[C@@H](O)[C@H](c1ccccc1)n1c(=O)n(C(C)C)c2cccc(F)c21`, the Time with Rattus norvegicus [6] stood at 1 h. Besides, the results for the inhibition in [1] and in data set [5] were 6% and 12%, respectively. The molecule further had an IC50 in [3] of 7.8 nM. Also, the Selectivity ratio is greater than 500 with JAR, greater than 900 in the data set filed under Homo sapiens and greater than 500 with CHO. Besides, the Activity came out at 2.09 °C with Rattus norvegicus [12] and 1.61 °C in the data set on Rattus norvegicus [14]. This molecule also registered an IC5 in data set [19] greater than 10 µM.
For the molecule `CNCC[C@@H](Oc1ccccc1C)c1ccccc1`, in data set [22], the IC5 was 48 nM.
As to `CNC[C@@H](O)[C@H](c1ccccc1)n1c(=O)n(C2CCCC2)c2ccccc21`, the results for the inhibition in data set [1] and in data set [5] were 46% and 20%, respectively. In [3], this molecule showed an IC50 of 66.7 nM. The IC5 in data set [19] is 2.37 µM.
Consider `CCOc1ccccc1O[C@@H](c1ccccc1)[C@@H]1CNCCO1`, for which the IC5 in [22] was greater than 10000 nM.
For `CCn1c(=O)n([C@@H](c2cccc(F)c2)[C@H](O)CNC)c2c(F)cccc21`, the inhibition in data set [1] stood at 8%; in data set [5], 11%. For the same molecule, the results for the IC50 in [3] and in [4] were 10.4 nM and 4.1 nM, respectively. The Selectivity ratio in the data set with JAR was greater than 500; in the data set filed under Homo sapiens it was greater than 900; in the data set on CHO, greater than 500. In data set [19], this molecule gave an IC5 greater than 10 µM.
`CCNC[C@@H](O)[C@H](c1ccccc1)n1c(=O)n(C(C)C)c2ccc(F)cc21` displayed a half-inhibitory concentration (IC50) in [3] greater than 1000 nM.
Regarding `CCCn1c(=O)n([C@@H](c2ccccc2)[C@H](O)CNC)c2cc(F)ccc21`, the figures for the inhibition in data set [1] and in data set [5] were 44% and 16%, respectively. The 50% inhibitory concentration (IC50) in data set [3] is 39.4 nM. The IC5 in [19] turned out to be 8.32 µM.
In the case of `CNC[C@@H](O)[C@H](c1cccc(F)c1)n1c(=O)n(C(C)C)c2cccc(F)c21`, the Time with Rattus norvegicus [6] worked out at 6 h. Moreover, the maximum concentration (Cmax) in data set [7] was found to be 1120 ng/mL. The results for the inhibition in data set [1] and in data set [5] were 19% and 27%, respectively. The IC5 amounted to 6320 nM in data set [22] and 6.32 µM in [19]. Moreover, the results for the half-life in data set [8] and in data set [15] were 3.9 h and 2.3 h, respectively. Moreover, the figures for the half-maximal inhibitory concentration (IC50) in [3] and in data set [4] were 6.9 nM and 4.1 nM, respectively. Moreover, the AUC(0-inf) in [9] was 3650 ng·h/mL; in data set [16], 7080 ng·h/mL. Also, the Tmax in data set [10] was 0.5 h. Besides, the bioavailability in data set [11] amounted to 97%. The Selectivity ratio in the data set on JAR is greater than 500; in the data set listed under Homo sapiens, greater than 900; with CHO, greater than 500. Further, the Activity is 3.73 °C in the data set with Rattus norvegicus [12] and 2.44 °C with Rattus norvegicus [14]. For the same molecule, in data set [13], the clearance was 24 mL/min/kg.
As to `CCCn1c(=O)n([C@@H](c2ccccc2)[C@H](O)CNC)c2ccccc21`, the inhibition in data set [1] was 15%; in data set [5], 6%. Besides, in data set [3], the IC50 was 18.6 nM.
Take `CNC[C@@H](O)[C@H](c1ccccc1)n1ccc2ccccc21`: the IC5 in [22] came out at 358 nM; in [19], 0.358 µM.
Consider `CNC[C@@H](O)[C@H](c1ccccc1)n1c(=O)n(C2CCC2)c2ccccc21`, for which the inhibition in [1] came to 5%; in [5], 6%. Also, the half-maximal inhibitory concentration (IC50) turned out to be 42.5 nM in data set [3] and 90 nM in data set [4].
